Target: Endothelin-1 receptor (Rattus norvegicus) (UniProt P26684)
Experiment: Ability to block the ET-1-induced hydrolysis of inositol phosphate in Endothelin A receptor of MMQ cells.

Chain of Endothelin-1 receptor (Rattus norvegicus) (P26684 whole entry, looked up): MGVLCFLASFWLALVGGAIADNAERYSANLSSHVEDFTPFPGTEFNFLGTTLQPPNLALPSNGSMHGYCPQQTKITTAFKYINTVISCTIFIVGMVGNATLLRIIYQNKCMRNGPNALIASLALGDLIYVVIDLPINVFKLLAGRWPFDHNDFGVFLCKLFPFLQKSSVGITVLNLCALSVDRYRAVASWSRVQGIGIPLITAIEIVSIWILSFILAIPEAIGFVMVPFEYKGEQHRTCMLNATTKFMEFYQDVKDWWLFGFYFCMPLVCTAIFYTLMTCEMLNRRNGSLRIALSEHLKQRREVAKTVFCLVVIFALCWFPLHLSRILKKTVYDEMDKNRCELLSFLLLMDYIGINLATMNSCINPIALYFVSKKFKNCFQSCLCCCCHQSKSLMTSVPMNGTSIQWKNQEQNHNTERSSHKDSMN

IC50: 0.55 nM
Structure (SMILES): CCCN(CCN1C[C@H](c2ccc3c(c2)OCO3)[C@@H](C(=O)O)[C@@H]1c1ccc(OC)c(F)c1)S(=O)(=O)CCCCl [(2R,3R,4S)-4-Benzo[1,3]dioxol-5-yl-1-{2-[(3-chloro-propane-1-sulfonyl)-propyl-amino]-ethyl}-2-(3-fluoro-4-methoxy-phenyl)-pyrrolidine-3-carboxylic acid]

Reference: BindingDB's records for doi:10.1021/jm970101g (Abbott Laboratories, 1997)
